# Patent US20130053435A1, “Methods of Treating Alcohol Intoxication, Alcohol Use Disorders and Alcohol Abuse Which Comprises the Administration of Dihydromyricetin” (priority 2011, published 2013)
# Legend:
# Test in all cases: Whole-cell patch-clamp, DGCs in hippocampal slices, acute drug application
# Type in all cases: cell-based, rat
# GABAARs [1] = test system: T1, GABAARs; details: in the presence of 60 mM EtOH, rat hippocampal slices
# T1 construct: other: in the presence of 60 mM EtOH, rat hippocampal; shift of the GABA concentration-response curve
# Procedure: (§1) Transverse slices (400 μm) of dorsal hippocampus were obtained with a Vibratome (VT 100, Technical Products International, St. Louis, Mo.) and standard techniques known in the art. Slices were continuously perfused with artificial cerebrospinal fluid (ACSF).
# (§2) Signals were recorded in voltage-clamp mode with a […] amplifier (Molecular Devices, Sunnyvale, Calif.). Whole cell access resistances were in the range of <25 MΩ before electrical compensation by about 70%. During voltage-clamp recordings, access resistance was monitored by measuring the size of the capacitative transient in response to a 5 mV step command and the data were abandoned if changes >20% were encountered. At least 10 min was allowed for equilibration of the pipette solution with the intracellular milieu before commencing mIPSC recordings.
# (§3) Data were analyzed using the Clampfit (Version 9.0, Molecular Devices) and the MiniAnalysis Program (versions 6.0.7, Synaptosoft, Decatur, Ga.).
# (§4) The MiniAnalysis program (Synaptosoft, Decatur, Ga.) was used to analyze mIPSCs. Itonic is the averaged baseline currents of a given recording period. Itonic amplitude was calculated as the difference between the holding currents measured before and after picrotoxin (100 μM) or bicuculline (10 μM). […] Briefly, the recordings were low-pass filtered off-line (Clampfit software) at 2 kHz. The mIPSCs were detected (Mini Analysis Program, version 6.0.7) with threshold criteria of 8 pA amplitude and 20 pA*ms charge transfer. The frequency of mIPSCs was determined from all automatically detected events in a given 100 s recording period. For kinetic analysis, only single event mIPSCs with a stable baseline, sharp rising phase (10 to 90% rise time), and exponential decay were chosen during visual inspection of the recording trace. Double and multiple peak mIPSCs were excluded. At least 100 individual mIPSC events were recorded under each experimental condition. The mIPSC kinetics was obtained from analysis of the averaged chosen single events aligned with half rise time in each cell. Decay time constants were obtained by fitting a double exponential to the falling phase of the averaged mIPSCs. Itonic magnitudes were obtained from the averaged baseline current of a given recording period. Itonic amplitude was calculated as the difference between the holding currents measured before and after the application of picrotoxin (50 μM) or bicuculline (10 μM). […] The investigator performing the recordings and mIPSC analysis was blind to the treatment (vehicle, EtOH, E+D, or D) that the rats received.
# (§5) As performed previously, whole-cell patch-clamp recordings in dentate gyms granule cells (DGCs) from hippocampal slices in vitro were conducted.
# GABAARs [2] = test system: T2, GABAARs
# T2 construct: DHM-enhanced Itonic; EC50 on GABAAR-mediated Itonic; other: control (vehicle) cultured neurons, DIV14; other: cultured neurons with EtOH exposure/withdrawal (60 mM, 30 min, 24 hr); EtOH-potentiated Itonic; GABAAR-mediated Ito
# Procedure: as §1, §2, §3, §4, §5
# GABAARs [3] = test system: T3, GABAARs
# T3 construct: DHM-enhanced mIPSCs; other: control (vehicle) cultured neurons, DIV14; other: cultured neurons with EtOH exposure/withdrawal (60 mM, 30 min, 24 hr); EtOH-potentiated mIPSCs; effect on post-synaptic currents (mIPSCs); other: comparative experiments, rat hippocampal slices
# Procedure: as §1, §2, §3, §4, §5
# [4] = DHM 0.3 μM, DGCs from naïve rats
# [5] = DHM 1 μM, DGCs in hippocampal slices
# [6] = comparative experiments, rat hippocampal slices
smiles,measurement,setting,value
"O=C1c2c(O)cc(O)cc2O[C@H](c2cc(O)c(O)c(O)c2)[C@H]1O [DHM, (2R,3R)-3,5,7-trihydroxy-2-(3,4,5-trihydroxyphenyl)-2,3-dihydrochromen-4-one]",block of EtOH potentiation of GABAAR-mediated Itonic and mIPSCs,GABAARs [1],dose-dependently blocks
same,GABAAR-mediated Itonic,GABAARs [2]; [4],29.0±6.7 pA
same,Itonic,GABAARs [2]; [5],44.0±4.1 pA
same,Itonic in presence of DHM plus EtOH,GABAARs [2]; DHM (0.3 μM) followed by co-application of 60 mM EtOH,44.4±3.6 pA
same,Itonic in presence of DHM before EtOH,"GABAARs [2]; DHM (0.3 μM, FIG. 3 panel c) before EtOH",41.1±2.2 pA
same,EtOH-potentiated Itonic,GABAARs [2]; EtOH 60 mM + DHM 3 μM,21.0±0.9 pA
same,EtOH-potentiated Itonic,GABAARs [2]; EtOH 60 mM followed by co-application of 1 μM DHM,32.0±2.0 pA
same,effect on extrasynaptic GABAAR-mediated tonic current (Itonic),GABAARs [2]; [6],potentiates
same,mIPSC total charge transfer (area),GABAARs [3]; [4],615±22 fC
same,mIPSC area,GABAARs [3]; [5],0.72±0.03 nC
same,EtOH-potentiated mIPSCs,GABAARs [3]; EtOH 60 mM + DHM 3 μM,0.70±0.02 nC
same,effect on post-synaptic currents (mIPSCs),GABAARs [3]; [6],potentiates
